Values of other authors, collected in Sander's compilation of Henry's law constants.
“And” between values parts separate entries of the source, which are not always exact repeats. Equal entries are not always repeated.

Assay: Henry solubility constant Hcp at 298.15 K (mol/(m3 Pa))
Details: cited value
[1] = reference: Burkholder et al. (2015)
[2] = reference: Burkholder et al. (2019)
[3] = reference: Schwartz and White (1981)
[4] = reference: Barcelo and Hennion (1997)
[5] = reference: Wania and Dugani (2003)
[6] = reference: Deno and Berkheimer (1960)
[7] = reference: Meynier et al. (2003)
[8] = reference: Fogg and Sangster (2003)
[9] = reference: Mackay et al. (1992b)
[10] = reference: Sander et al. (2006)
[11] = reference: Sander et al. (2011)

C=COC(C)=O [ethenyl ethanoate]
Henry solubility constant Hcp (reference: Brockbank (2013)): 0.02
Henry solubility constant Hcp [1]: 0.02
Henry solubility constant Hcp [2]: 0.02
Henry solubility constant Hcp (reference: Goldstein (1982)): 0.017

CCC(C)OC(C)=O (centres undefined) [2-butyl ethanoate]
Henry solubility constant Hcp (reference: Brockbank (2013)): 0.023

O=NO [nitrous acid]
Henry solubility constant Hcp [3]: 0.48

CN(C)C(=O)Nc1ccc(Cl)c(Cl)c1 [diuron]
Henry solubility constant Hcp [4]: 8.2

CC(Cl)CCl (centres undefined) [1,2-dichloropropane]
Henry solubility constant Hcp (reference: Brockbank (2013)): 0.0034
Henry solubility constant Hcp [1]: 0.0034
Henry solubility constant Hcp [2]: 0.0034
Henry solubility constant Hcp (reference: Goldstein (1982)): 0.0034
Henry solubility constant Hcp (reference: Horvath and Getzen (1999)): 0.0035

Brc1ccc(Oc2ccc(Br)cc2Br)cc1 [2,4,4'-tribromodiphenyl ether]
Henry solubility constant Hcp [5]: 0.52

C1CCCC1 [cyclopentane]
Henry solubility constant Hcp (reference: Brockbank (2013)): 5.8e-05

CCSC [ethyl methyl sulfide]
Henry solubility constant Hcp [1]: 0.0042
Henry solubility constant Hcp [2]: 0.0042

[Xe] [xenon]
Henry solubility constant Hcp (reference: Clever (1979b)): 4.3e-05

CNC(=O)ON=C(C)SC [methomyl]
Henry solubility constant Hcp [4]: 150

O=[N+]([O-])c1ccc(Cl)cc1 [4-chloronitrobenzene]
Henry solubility constant Hcp (reference: Brockbank (2013)): 0.64

Brc1ccc(Oc2ccc(Br)cc2)cc1 [4,4'-dibromodiphenyl ether]
Henry solubility constant Hcp [5]: 0.24

ClCCOCCCl [1,5-dichloro-3-oxapentane]
Henry solubility constant Hcp (reference: Brockbank (2013)): 0.48
Henry solubility constant Hcp (reference: Goldstein (1982)): 0.46 and 0.47
Henry solubility constant Hcp (reference: Harrison et al. (1993)): 0.37

ClC1=C(Cl)[C@]2(Cl)[C@@H]3[C@@H]4C[C@@H]([C@H]5O[C@@H]45)[C@@H]3[C@@]1(Cl)C2(Cl)Cl [dieldrin]
Henry solubility constant Hcp [4]: 0.0088

C=CC [propene]
Henry solubility constant Hcp [6]: 9.2e-05

C=CCSC [allyl methyl sulfide]
Henry solubility constant Hcp [1]: 0.0042
Henry solubility constant Hcp [2]: 0.0042

CCCCCOC(C)=O [pentyl ethanoate]
Henry solubility constant Hcp (reference: Brockbank (2013)): 0.025
Henry solubility constant Hcp [7]: 0.025

Cc1ccc2ccccc2c1 [2-methylnaphthalene]
Henry solubility constant Hcp (reference: Brockbank (2013)): 0.02
Henry solubility constant Hcp [8]: 0.018
Henry solubility constant Hcp [9]: 0.02

[Hg+2].[OH-].[OH-] [mercury dihydroxide]
Henry solubility constant Hcp (reference: Lindqvist and Rodhe (1985)): 130
Henry solubility constant Hcp (reference: WHO (1990)): 130

CCc1cccc(C)c1N(C(=O)CCl)C(C)COC (centres undefined) [metolachlor]
Henry solubility constant Hcp [4]: 11
Henry solubility constant Hcp [8]: 620
Henry solubility constant Hcp (reference: Muir et al. (2004)): 750 and 720
Henry solubility constant Hcp (reference: Rice et al. (1997b)): 1200

COC(=O)Nc1cccc(OC(=O)Nc2cccc(C)c2)c1 [phenmedipham]
Henry solubility constant Hcp [4]: 120000

O=C(Nc1ccccc1-c1ccc(Cl)cc1)c1cccnc1Cl [boscalid]
Henry solubility constant Hcp (reference: MacBean (2012b)): 19000

c1cc2ccc3ccc4ccc5cccc6c(c1)c2c3c4c56 [benzo[ghi]perylene]
Henry solubility constant Hcp [9]: 13

CCOC(=O)c1ccccc1 [ethyl benzoate]
Henry solubility constant Hcp (reference: Brockbank (2013)): 0.17

CCOC(=O)CCl [ethyl chloroethanoate]
Henry solubility constant Hcp (reference: Brockbank (2013)): 0.26

CC(C)I [2-iodopropane]
Henry solubility constant Hcp (reference: Brockbank (2013)): 0.00085

[OH] [hydroxyl radical]
Henry solubility constant Hcp (reference: Jacob (1986)): 0.25

CCC/C=C/C=O [(E)-2-hexenal]
Henry solubility constant Hcp [7]: 0.2

C=CC#N [2-propenenitrile]
Henry solubility constant Hcp (reference: Brockbank (2013)): 0.1
Henry solubility constant Hcp (reference: Goldstein (1982)): 0.11
Henry solubility constant Hcp (reference: Mackay et al. (1995)): 0.11

C1CCCCCCC1 [cyclooctane]
Henry solubility constant Hcp (reference: Brockbank (2013)): 7.3e-05

[N]=O [nitrogen monoxide]
Henry solubility constant Hcp (reference: Loomis (1928)): 1.9e-05
Henry solubility constant Hcp [10]: 1.9e-05
Henry solubility constant Hcp [11]: 1.9e-05
Henry solubility constant Hcp [3]: 1.9e-05
Henry solubility constant Hcp (reference: Young (1981b)): 1.9e-05

Cc1ccc(N)c(C)c1 [2,4-dimethylbenzenamine]
Henry solubility constant Hcp (reference: Brockbank (2013)): 2.8

CCCCC(O)CC (centres undefined) [3-heptanol]
Henry solubility constant Hcp (reference: Brockbank (2013)): 0.32

OCC(F)(F)C(F)F [2,2,3,3-tetrafluoro-1-propanol]
Henry solubility constant Hcp [1]: 1.4
Henry solubility constant Hcp [2]: 1.4
Henry solubility constant Hcp [11]: 1.4

CCOC(=O)C(F)(F)F [trifluoroethanoic acid, ethyl ester]
Henry solubility constant Hcp [1]: 0.00089
Henry solubility constant Hcp [2]: 0.00089
Henry solubility constant Hcp [11]: 0.00089

CF [fluoromethane]
Henry solubility constant Hcp (reference: Brockbank (2013)): 0.00062
Henry solubility constant Hcp [1]: 0.00061
Henry solubility constant Hcp [2]: 0.00061
Henry solubility constant Hcp [10]: 0.00061
Henry solubility constant Hcp [11]: 0.00061

CCc1ccc2ccccc2c1 [2-ethylnaphthalene]
Henry solubility constant Hcp [9]: 0.013

CCCCC(=O)CCCC [5-nonanone]
Henry solubility constant Hcp (reference: Brockbank (2013)): 0.04

Clc1ccc(-c2ccc(Cl)cc2)cc1 [4,4'-dichlorobiphenyl]
Henry solubility constant Hcp (reference: Murphy et al. (1983b)): 0.033

CCCCS [1-butanethiol]
Henry solubility constant Hcp (reference: Brockbank (2013)): 0.0015

BrCBr [dibromomethane]
Henry solubility constant Hcp (reference: Brockbank (2013)): 0.012
Henry solubility constant Hcp [2]: 0.012

c1ccc2c(c1)Cc1ccccc1-2 [2,3-benzindene]
Henry solubility constant Hcp (reference: Brockbank (2013)): 0.13
Henry solubility constant Hcp [8]: 0.11
Henry solubility constant Hcp (reference: Goldstein (1982)): 0.084
Henry solubility constant Hcp (reference: HSDB (2015)): 0.099
Henry solubility constant Hcp (reference: McCarty (1980)): 0.047

CC(C)CC(C)C [2,4-dimethylpentane]
Henry solubility constant Hcp (reference: Brockbank (2013)): 2.9e-06

CCCCC(=O)CC [3-heptanone]
Henry solubility constant Hcp (reference: Brockbank (2013)): 0.072

CCC(C)O (centres undefined) [2-butanol]
Henry solubility constant Hcp (reference: Brockbank (2013)): 0.95
Henry solubility constant Hcp [1]: 1.1
Henry solubility constant Hcp [2]: 1.1
Henry solubility constant Hcp [8]: 1
Henry solubility constant Hcp [10]: 1.1
Henry solubility constant Hcp [11]: 1.1

ClN(Cl)Cl [nitrogen trichloride]
Henry solubility constant Hcp [1]: 0.00099
Henry solubility constant Hcp [2]: 0.00099
Henry solubility constant Hcp [10]: 0.00099
Henry solubility constant Hcp [11]: 0.00099

COP(=S)(OC)SCN1C(=O)c2ccccc2C1=O [phosmet]
Henry solubility constant Hcp [4]: 10

COc1nc(NC(C)C)nc(NC(C)C)n1 [prometone]
Henry solubility constant Hcp [4]: 110

CCCCC(C)O (centres undefined) [2-hexanol]
Henry solubility constant Hcp (reference: Brockbank (2013)): 0.39

O=C=S [carbon oxide sulfide]
Henry solubility constant Hcp [1]: 0.0002
Henry solubility constant Hcp [2]: 0.0002
Henry solubility constant Hcp [10]: 0.0002
Henry solubility constant Hcp [11]: 0.0002

CCCc1ccccc1 [propylbenzene]
Henry solubility constant Hcp (reference: Brockbank (2013)): 0.00091

O=COCC(F)(F)F [2,2,2-trifluoroethyl methanoate]
Henry solubility constant Hcp [1]: 0.0054
Henry solubility constant Hcp [2]: 0.0054
Henry solubility constant Hcp [11]: 0.0054

CC(C)OC(C)C [diisopropyl ether]
Henry solubility constant Hcp (reference: Brockbank (2013)): 0.0045

C=CCO [2-propen-1-ol]
Henry solubility constant Hcp (reference: Goldstein (1982)): 4.3
Henry solubility constant Hcp (reference: Pierotti et al. (1959)): 2

COC(=O)c1ccccc1 [methyl benzoate]
Henry solubility constant Hcp (reference: Brockbank (2013)): 0.29

CCNc1nc(NC(C)(C)C)nc(SC)n1 [terbutryn]
Henry solubility constant Hcp [4]: 7.6

COO [methyl hydroperoxide]
Henry solubility constant Hcp (reference: Brockbank (2013)): 3
Henry solubility constant Hcp [1]: 3
Henry solubility constant Hcp [2]: 3
Henry solubility constant Hcp [10]: 3
Henry solubility constant Hcp [11]: 3

CC(=O)C(F)(F)F [1,1,1-trifluoro-2-propanone]
Henry solubility constant Hcp [1]: 1.4
Henry solubility constant Hcp [2]: 1.4
Henry solubility constant Hcp [11]: 1.4

O=C1C2CC=CCC2C(=O)N1SC(Cl)(Cl)Cl (centres undefined) [captan]
Henry solubility constant Hcp [4]: 0.016

CCC(C)(C)C [2,2-dimethylbutane]
Henry solubility constant Hcp (reference: Brockbank (2013)): 5.7e-06

ClC1=C(Cl)C2(Cl)C3C(Cl)C=CC3C1(Cl)C2(Cl)Cl (centres undefined) [heptachlor]
Henry solubility constant Hcp [4]: 8.8e-05
Henry solubility constant Hcp (reference: McCarty (1980)): 0.0043
Henry solubility constant Hcp (reference: Meylan and Howard (1991)): 0.0067

C#CCCCCCCC [1-nonyne]
Henry solubility constant Hcp (reference: Brockbank (2013)): 8.5e-05

FC(F)Cl [chlorodifluoromethane]
Henry solubility constant Hcp [1]: 0.00035
Henry solubility constant Hcp [2]: 0.00035
Henry solubility constant Hcp [11]: 0.00034

CC(=O)CF [1-fluoro-2-propanone]
Henry solubility constant Hcp [1]: 0.46
Henry solubility constant Hcp [2]: 0.46

OCOO [hydroxymethyl hydroperoxide]
Henry solubility constant Hcp [1]: 17000
Henry solubility constant Hcp [2]: 17000
Henry solubility constant Hcp [10]: 17000
Henry solubility constant Hcp [11]: 17000

Cc1cccc(C)c1 [1,3-dimethylbenzene]
Henry solubility constant Hcp (reference: Brockbank (2013)): 0.0015

CCCC [butane]
Henry solubility constant Hcp [1]: 1.2e-05
Henry solubility constant Hcp [2]: 1.2e-05
Henry solubility constant Hcp [6]: 1.1e-05
Henry solubility constant Hcp (reference: Hayduk (1986)): 1.2e-05
Henry solubility constant Hcp [10]: 1.2e-05
Henry solubility constant Hcp [11]: 1.2e-05

CCC(=O)OC [methyl propanoate]
Henry solubility constant Hcp (reference: Brockbank (2013)): 0.058

FC(F)(F)C(F)(F)C(F)(F)C(F)(F)C(F)(F)C(F)(F)F [tetradecafluorohexane]
Henry solubility constant Hcp (reference: Brockbank (2013)): 9.3e-09

Fc1c(F)c(F)c(F)c(F)c1F [hexafluorobenzene]
Henry solubility constant Hcp (reference: Brockbank (2013)): 0.0003

C=C(Cl)Cl [1,1-dichloroethene]
Henry solubility constant Hcp (reference: Brockbank (2013)): 0.00031
Henry solubility constant Hcp [1]: 0.00037
Henry solubility constant Hcp [2]: 0.00037
Henry solubility constant Hcp [8]: 0.0004
Henry solubility constant Hcp (reference: Goldstein (1982)): 0.00064

C1=CCCC1 [cyclopentene]
Henry solubility constant Hcp (reference: Brockbank (2013)): 0.0002

CC(C)Nc1nc(Cl)nc(NC(C)C)n1 [propazine]
Henry solubility constant Hcp [4]: 99

CCCCCCCCCc1ccccc1 [nonylbenzene]
Henry solubility constant Hcp (reference: Brockbank (2013)): 0.00014

CCC(C)C=O (centres undefined) [2-methylbutanal]
Henry solubility constant Hcp (reference: Brockbank (2013)): 0.025
